Assay results reported in ChEMBL document CHEMBL3507680, “University of Dundee, Gates Library screen for HepG2 cell viability”.

Experiment: Human HepG2 cell viability assay in 384 well format
Format: toxicity, cell-based
Set-up: dose 125 nL, time 70.5 hour; cytotoxicity at 70.5 h: concentration not given beside the values
Conditions: HepG2 cells, read-out: Inhibition

Row | Compound | cytotoxicity at 70.5 h
1 | Cc1nn(C)c(C)c1CC(=O)N1CCC(Nc2cccnn2)CC1 | 35.9%
2 | CCCSCC(=O)NS(=O)(=O)c1ccc2c(c1)OCCO2 | 2.12%
3 | O=C(CSc1ccccc1Cl)NS(=O)(=O)c1ccc2c(c1)OCCO2 | -4.84%
4 | CCn1c(CN2CCC(O)(C(=O)OC)CC2)nc2c(F)cccc21 | 31.2%
5 | OC(CN1CCCCCCC1)c1ccc(F)cc1 (centres undefined) | 3.53%
6 | Cc1cc2n(n1)CC(CNCc1ccnc(-n3ccnc3C)c1)CN2 (centres undefined) | 0.264%
7 | Cc1nc(C2CCCN2C(=O)c2cnns2)no1 (centres undefined) | -8.38%
8 | CCn1ccnc1CN1CCN(CCOc2cccc(C#N)c2)CC1 | -5.28%
9 | Cc1cnn(CCNCc2nc(-c3ccccc3Cl)no2)c1 | 31.1%
10 | Cc1cc(CN2CCN(C(=O)Nc3cccnc3)CC2)on1 | -7.67%
11 | CC(NC(=O)N(C)Cc1ccsc1)c1ccc2c(c1)CCC(=O)N2 (centres undefined) | -3.94%
12 | Cc1cc(CN2CCN(C(=O)NC(C)c3cccnc3)CC2)on1 (centres undefined) | -11.7%
13 | CC(NC(=O)N1CCCN(Cc2cccs2)CC1)c1cccnc1 (centres undefined) | -16.5%
14 | Cc1nc(CNCc2c(C)nn(C)c2N2CCOCC2)cs1 | -15.5%
15 | CC(NC(=O)N(C)Cc1ccsc1)c1ccc2c(c1)NC(=O)CO2 (centres undefined) | -9.52%
16 | Cc1noc(C)c1CNC(=O)N1CCN(Cc2cscn2)CC1 | -5.24%
17 | CCOc1ccccc1C(CC(=O)Nc1ccccc1F)NC(C)=O (centres undefined) | -6.84%
18 | Cc1cc(CNCc2c(C)nn(C)c2N2CCOCC2)no1 | -4.07%
19 | CNS(=O)(=O)c1ccc(C(=O)N2CCCC(n3cccn3)C2)cc1 (centres undefined) | -8.29%
20 | CCOC(=O)CN1CCC(C(=O)c2cc(F)ccc2F)CC1 | 34.9%

Row | Compound | cytotoxicity at 70.5 h
21 | Cc1nc(C)n(CC2CCCN2Cc2nc(-c3cccs3)no2)n1 (centres undefined) | -12.2%
22 | Cc1cnn(CCNCc2nc(Cc3ccccc3)no2)c1 | -5.53%
23 | Cc1cc(C)n(CC2CCCN2C(=O)CCCNc2ncccn2)n1 (centres undefined) | -0.613%
24 | COc1cc(CNC(=O)NCc2c(C)cc(C)[nH]c2=O)ccc1C | -8.93%
25 | Cc1nc(C2CCCN(C(=O)Cn3ccccc3=O)C2)no1 (centres undefined) | -9.54%
26 | Cc1cc(C)n(CC2CCCN2C(=O)CCc2cscn2)n1 (centres undefined) | -8.27%
27 | Cc1nc(C)n(CC2CCCN2Cc2nc(C3CC3)no2)n1 (centres undefined) | -5.43%
28 | COCCN1CCN(Cc2noc(C3CC3)n2)CC1C (centres undefined) | 12.5%
29 | Cc1cccc(OCCC(=O)N2CCN(S(=O)(=O)N(C)C)CC2)c1C | 20.1%
30 | O=C(NCCc1ccccn1)C1=NN(c2ccccc2)C(=O)CN1 | -6.71%
31 | CC(C)c1noc(CCCC(=O)N2CCN(Cc3ccncc3)CC2)n1 | -17.6%
32 | Cn1cc(NS(=O)(=O)c2ccc(OC(F)(F)F)cc2)ccc1=O | 18%
33 | Cn1ncc2c(=O)[nH]c(CN3CCCC3c3cccs3)nc21 (centres undefined) | -10.3%
34 | OC(COCc1ccc(Cl)cc1)CN1CCC(c2ccn[nH]2)CC1 (centres undefined) | -1.37%
35 | COCCNc1ccc(CNC(=O)Nc2cn[nH]c2)cc1 | -16.6%
36 | OC(COc1ccccc1)CN1CCC(c2ccn[nH]2)CC1 (centres undefined) | -13.1%
37 | CCn1cnnc1C1CCN(C(=O)c2ccc(Cl)s2)CC1 | -15%
38 | CCn1cnnc1C1CCN(C(=O)c2cc3c(s2)CCC3)CC1 | -12.3%
39 | Cc1cccc(OCCC(=O)N2CCCN(C(N)=O)CC2)c1C | 15.3%
40 | Cc1noc(C)c1CN1CCN(Cc2nccn2C)C(C)C1 (centres undefined) | -11.9%

Row | Compound | cytotoxicity at 70.5 h
41 | Cc1cccc(OCCC(=O)N2CCCN(CC(N)=O)CC2)c1C | -12%
42 | Cc1cnn(CCNCC(O)COc2ccc(C#N)cc2)c1 (centres undefined) | -5.86%
43 | CCc1nnc2n1CCN(C(=O)c1ccc(-c3ccco3)nc1C)C2 | 10%
44 | CN(C)c1cc2c(nn1)CCN(C(=O)C1CCc3ccccc31)C2 (centres undefined) | 13.5%
45 | CN(C)c1cc2c(nn1)CCN(C(=O)C1Cc3ccccc3S1)C2 (centres undefined) | -8.43%
46 | COc1ccc(CNC(=O)N(Cc2ccc(F)cc2F)C2CC2)cn1 | 18.5%
47 | COc1ccc2c(c1)CN(Cc1nc3ccsc3c(=O)[nH]1)CC2 | 5.83%
48 | Cc1cnn(CCNCC(O)COc2ccc(Cl)cc2)c1 (centres undefined) | 2.45%
49 | CC1CN(Cc2noc(C3CC3)n2)CCN1Cc1nccn1C (centres undefined) | 4.66%
50 | CCc1noc(CN2CCCN(C(N)=O)CC2)n1 | -12%
51 | CCc1nc(CN2CCCC(NCc3cnn(C(C)(C)C)c3)C2)no1 (centres undefined) | -12.7%
52 | CC(C)OCCCNC(=O)CN1CCC(N2CCN(C)C2=O)CC1 | -18.5%
53 | COCCc1noc(CN(C)C(=O)c2cccc(N3CCCC3=O)c2)n1 | -17%
54 | CCc1nc(CN2CCCC(NCc3ccc(C(N)=O)cc3)C2)no1 (centres undefined) | -10.1%
55 | Cc1cnc(CN2CCOC(Cn3nc(C)nc3C)C2)cn1 (centres undefined) | 18.6%
56 | O=C1CC(N(C(=O)c2ccc3[nH]c4c(c3c2)CCCC4)C2CC2)C(=O)N1 (centres undefined) | 39.1%
57 | Clc1snnc1CN1CCCC(Cn2cncn2)C1 (centres undefined) | 14.5%
58 | CN(Cc1ccsc1)C(=O)Nc1ccc(S(=O)(=O)N(C)C)cc1 | 3.55%
59 | Cc1cnc(CN(C)C2CCN(CC(=O)Nc3nncs3)C2)o1 (centres undefined) | 17.3%
